Laboratory results from the supplement of paper PMC13207355.

What was measured:
Details in all cases: exposure time: 72 h
E21 [1] = patient-derived glioblastoma stem cells of mesenchymal subtype; test: phenotypic distance (Euclidean, principal components) from DMSO controls (arbitrary units); higher = stronger morphological change
E28 [2] = patient-derived glioblastoma stem cells of classical subtype; test: as above
E34 [3] = patient-derived glioblastoma stem cells of proneural subtype; test: as above
FT3469 [4] = normal neural stem cell line; test: as above
E13 [5] = patient-derived glioblastoma stem cells of classical subtype; test: as above
E57 [6] = patient-derived glioblastoma stem cells of mesenchymal subtype; test: as above
E21 [7] = test: surviving fraction (nuclei count normalised to DMSO); higher = more cells surviving (less toxic)
E28 [8] = test: as above
E34 [9] = test: as above
FT3469 [10] = test: as above
E13 [11] = test: as above
E57 [12] = test: as above
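Throughout, for phenotypic distance (Euclidean, principal components) from DMSO controls: cell Painting imaging in 384-well plates, CellProfiler features reduced to at least 20 principal components, Euclidean distance versus same-plate DMSO vehicle wells (0.1% v/v), median over six images per well.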
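Throughout, for surviving fraction (nuclei count normalised to DMSO): nuclei counted by high-content imaging of Hoechst-stained cells in laminin-coated 384-well plates, relative to 0.1% DMSO vehicle wells, with staurosporine as cell-death control.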

CCn1c(-c2nonc2N)nc2cnc(Oc3cccc(NC(=O)c4ccc(OCCN5CCOCC5)cc4)c3)cc21
Details	phenotypic distance	surviving fraction
E13 [5], 4.1 nM	2.07	–
E13 [5], 12.3 nM	2.22	–
E13 [5], 37 nM	2.86	–
E13 [5], 111.1 nM	2.12	–
E13 [5], 333.3 nM	2.126	–
E13 [5], 1000 nM	2.51	–
E13 [5], 3000 nM	3.08	–
E13 [11], 4.1 nM	–	0.992
E13 [11], 12.3 nM	–	0.995
E13 [11], 37 nM	–	0.9924
E13 [11], 111.1 nM	–	1.0033
E13 [11], 333.3 nM	–	1.03
E13 [11], 1000 nM	–	0.729
E13 [11], 3000 nM	–	0.633
E21 [1], 4.1 nM	1.88	–
E21 [1], 12.3 nM	2.27	–
E21 [1], 37 nM	2.12	–
E21 [1], 111.1 nM	2.01	–
E21 [1], 333.3 nM	1.94	–
E21 [1], 1000 nM	2.16	–
E21 [1], 3000 nM	2.66	–
E21 [7], 4.1 nM	–	0.933
E21 [7], 12.3 nM	–	0.948
E21 [7], 37 nM	–	0.974
E21 [7], 111.1 nM	–	0.925
E21 [7], 333.3 nM	–	0.898
E21 [7], 1000 nM	–	0.613
E21 [7], 3000 nM	–	0.448
E28 [2], 4.1 nM	2.14	–
E28 [2], 12.3 nM	2.12	–
E28 [2], 37 nM	2.16	–
E28 [2], 111.1 nM	2.28	–
E28 [2], 333.3 nM	2.41	–
E28 [2], 1000 nM	3.356	–
E28 [2], 3000 nM	3.1	–
E28 [8], 4.1 nM	–	0.9684
E28 [8], 12.3 nM	–	0.977
E28 [8], 37 nM	–	1.02
E28 [8], 111.1 nM	–	0.996
E28 [8], 333.3 nM	–	0.909
E28 [8], 1000 nM	–	0.619
E28 [8], 3000 nM	–	0.5398
E34 [3], 4.1 nM	1.73	–
E34 [3], 12.3 nM	1.69	–
E34 [3], 37 nM	2.04	–
E34 [3], 111.1 nM	1.79	–
E34 [3], 333.3 nM	1.73	–
E34 [3], 1000 nM	1.67	–
E34 [3], 3000 nM	2.39	–
E34 [9], 4.1 nM	–	1.12
E34 [9], 12.3 nM	–	1.14
E34 [9], 37 nM	–	1.176
E34 [9], 111.1 nM	–	0.989
E34 [9], 333.3 nM	–	1.02
E34 [9], 1000 nM	–	0.887
E34 [9], 3000 nM	–	0.746
E57 [6], 4.1 nM	0.962	–
E57 [6], 12.3 nM	1.68	–
E57 [6], 37 nM	0.775	–
E57 [6], 111.1 nM	0.817	–
E57 [6], 333.3 nM	1.73	–
E57 [6], 1000 nM	2.26	–
E57 [6], 3000 nM	3.68	–
E57 [12], 4.1 nM	–	1.06
E57 [12], 12.3 nM	–	1.01
E57 [12], 37 nM	–	1.01
E57 [12], 111.1 nM	–	0.996
E57 [12], 333.3 nM	–	0.86
E57 [12], 1000 nM	–	0.645
E57 [12], 3000 nM	–	0.486
FT3469 [4], 4.1 nM	2.61	–
FT3469 [4], 12.3 nM	1.73	–
FT3469 [4], 37 nM	1.75	–
FT3469 [4], 111.1 nM	1.587	–
FT3469 [4], 333.3 nM	1.48	–
FT3469 [4], 1000 nM	1.9	–
FT3469 [4], 3000 nM	3.17	–
FT3469 [10], 4.1 nM	–	1.18
FT3469 [10], 12.3 nM	–	1.18
FT3469 [10], 37 nM	–	1.12
FT3469 [10], 111.1 nM	–	1.055
FT3469 [10], 333.3 nM	–	1.06
FT3469 [10], 1000 nM	–	0.911
FT3469 [10], 3000 nM	–	0.766

C[C@H](NC(=O)[C@@H](O)c1cc(F)cc(F)c1)C(=O)N[C@@H]1C(=O)N(C)c2ccccc2-c2ccccc21
Details	phenotypic distance	surviving fraction
E13 [5], 4.1 nM	0.77	–
E13 [5], 12.3 nM	0.711	–
E13 [5], 37 nM	0.622	–
E13 [5], 111.1 nM	0.7795	–
E13 [5], 333.3 nM	0.785	–
E13 [5], 1000 nM	0.723	–
E13 [5], 3000 nM	0.862	–
E13 [11], 4.1 nM	–	1.02
E13 [11], 12.3 nM	–	1.075
E13 [11], 37 nM	–	1.02
E13 [11], 111.1 nM	–	1.03
E13 [11], 333.3 nM	–	1.08
E13 [11], 1000 nM	–	1.07
E13 [11], 3000 nM	–	0.995
E21 [1], 4.1 nM	0.769	–
E21 [1], 12.3 nM	2.05	–
E21 [1], 37 nM	1.5	–
E21 [1], 111.1 nM	0.896	–
E21 [1], 333.3 nM	3.99	–
E21 [1], 1000 nM	1.02	–
E21 [1], 3000 nM	1.01	–
E21 [7], 4.1 nM	–	0.89
E21 [7], 12.3 nM	–	0.9941
E21 [7], 37 nM	–	0.938
E21 [7], 111.1 nM	–	0.902
E21 [7], 333.3 nM	–	0.872
E21 [7], 1000 nM	–	0.883
E21 [7], 3000 nM	–	0.898
E28 [2], 4.1 nM	0.845	–
E28 [2], 12.3 nM	0.88	–
E28 [2], 37 nM	0.919	–
E28 [2], 111.1 nM	0.756	–
E28 [2], 333.3 nM	0.96	–
E28 [2], 1000 nM	1.03	–
E28 [2], 3000 nM	1.13	–
E28 [8], 4.1 nM	–	0.852
E28 [8], 12.3 nM	–	0.866
E28 [8], 37 nM	–	0.942
E28 [8], 111.1 nM	–	0.918
E28 [8], 333.3 nM	–	0.925
E28 [8], 1000 nM	–	0.835
E28 [8], 3000 nM	–	0.891
E34 [3], 4.1 nM	1.26	–
E34 [3], 12.3 nM	0.926	–
E34 [3], 37 nM	1.15	–
E34 [3], 111.1 nM	1.04	–
E34 [3], 333.3 nM	1.01	–
E34 [3], 1000 nM	1.24	–
E34 [3], 3000 nM	1.49	–
E34 [9], 4.1 nM	–	0.841
E34 [9], 12.3 nM	–	0.811
E34 [9], 37 nM	–	0.801
E34 [9], 111.1 nM	–	0.907
E34 [9], 333.3 nM	–	0.862
E34 [9], 1000 nM	–	0.775
E34 [9], 3000 nM	–	0.875
E57 [6], 4.1 nM	1.25	–
E57 [6], 12.3 nM	1.21	–
E57 [6], 37 nM	1.87	–
E57 [6], 111.1 nM	1.2	–
E57 [6], 333.3 nM	1.284	–
E57 [6], 1000 nM	1.34	–
E57 [6], 3000 nM	1.43	–
E57 [12], 4.1 nM	–	0.906
E57 [12], 12.3 nM	–	0.947
E57 [12], 37 nM	–	0.939
E57 [12], 111.1 nM	–	0.922
E57 [12], 333.3 nM	–	0.9779
E57 [12], 1000 nM	–	0.943
E57 [12], 3000 nM	–	0.931
FT3469 [4], 4.1 nM	1.01	–
FT3469 [4], 12.3 nM	0.677	–
FT3469 [4], 37 nM	0.997	–
FT3469 [4], 111.1 nM	0.721	–
FT3469 [4], 333.3 nM	1.08	–
FT3469 [4], 1000 nM	0.977	–
FT3469 [4], 3000 nM	0.991	–
FT3469 [10], 4.1 nM	–	0.89
FT3469 [10], 12.3 nM	–	0.882
FT3469 [10], 37 nM	–	0.89
FT3469 [10], 111.1 nM	–	0.906
FT3469 [10], 333.3 nM	–	0.896
FT3469 [10], 1000 nM	–	0.875
FT3469 [10], 3000 nM	–	0.828
